Reference: ChEMBL document CHEMBL3046832, “Synthesis of some sulfonamides, disubstituted sulfonylureas or thioureas and some structurally related variants. A class of promising antitumor agents” (2007)

Legend:
Format in all cases: functional
NCI-H23 = test: Cytotoxicity against Homo sapiens (human) NCI-H23 cells after 48 hr by SRB assay; conditions: NCI-H23, 48 h
SK-OV-3 = test: Cytotoxicity against Homo sapiens (human) SKOV3 cells after 48 hr by SRB assay; conditions: SK-OV-3, 48 h
[1] = Cytotoxicity against Homo sapiens (human) prostate cancer cells after 48 hr by SRB assay; conditions: Cancer cell lines
COLO 205 = test: Cytotoxicity against Homo sapiens (human) COLO205 cells after 48 hr by SRB assay; conditions: COLO 205, 48 h
SF-268 = test: Cytotoxicity against Homo sapiens (human) SF268 cells assessed as cellular growth after 48 hr by Alamar blue assay; design: concentration or dose not given beside the values
T47D = test: Cytotoxicity against Homo sapiens (human) T47D cells after 48 hr by SRB assay
ACHN = test: Cytotoxicity against Homo sapiens (human) ACHN cells after 48 hr by SRB assay
[2] = Cytotoxicity against Homo sapiens (human) non-small cell lung cancer cells after 48 hr by SRB assay; conditions: Cancer cell lines
[3] = Cytotoxicity against Homo sapiens (human) leukemia cells after 48 hr by SRB assay; conditions: Leukemia cell
CAKI-1 = test: Cytotoxicity against Homo sapiens (human) Caki1 cells after 48 hr by SRB assay; conditions: CAKI-1, 48 h
HT-29 = test: Cytotoxicity against Homo sapiens (human) HT-29 cells after 48 hr by SRB assay; conditions: HT-29, 48 h
SNB-19 = test: Cytotoxicity against Homo sapiens (human) SNB19 cells after 48 hr by SRB assay; conditions: SNB-19, 48 h
SF-539 = test: Cytotoxicity against Homo sapiens (human) SF539 cells after 48 hr by SRB assay; conditions: SF-539, 48 h
U-251 = test: Cytotoxicity against Homo sapiens (human) U251 cells after 48 hr by SRB assay; conditions: U-251, 48 h
HCC 2998 = test: Cytotoxicity against Homo sapiens (human) HCC2998 cells after 48 hr by SRB assay; conditions: HCC 2998, 48 h
[4] = Cytotoxicity against Homo sapiens (human) NCI-ADR-RES cells after 48 hr by SRB assay
OVCAR-4 = test: Cytotoxicity against Homo sapiens (human) OVCAR4 cells after 48 hr by SRB assay; conditions: OVCAR-4, 48 h
M14 = test: Cytotoxicity against Homo sapiens (human) M14 cells after 48 hr by SRB assay; conditions: M14, 48 h
HCT-15 = test: Cytotoxicity against Homo sapiens (human) HCT15 cells after 48 hr by SRB assay; conditions: HCT-15, 48 h
SK-MEL-5 = test: Cytotoxicity against Homo sapiens (human) SK-MEL-5 cells after 48 hr by SRB assay; conditions: SK-MEL-5, 48 h
[5] = Cytotoxicity against Homo sapiens (human) CNS cancer cells after 48 hr by SRB assay; conditions: Cancer cell lines
NCI-H460 = test: Cytotoxicity against Homo sapiens (human) NCI-H460 cells after 48 hr by SRB assay; conditions: NCI-H460, 48 h
KM12 = test: Cytotoxicity against Homo sapiens (human) KM12 cells after 48 hr by SRB assay; conditions: KM12, 48 h
[6] = Cytotoxicity against Homo sapiens (human) NCI-H322 cells after 48 hr by SRB assay; conditions: NCI-H322, 48 h
[7] = Cytotoxicity against Homo sapiens (human) melanoma cells after 48 hr by SRB assay; conditions: Melanoma cell
PC-3 = test: Cytotoxicity against Homo sapiens (human) PC3 cells after 48 hr by SRB assay; conditions: PC-3, 48 h
BT-549 = test: Cytotoxicity against Homo sapiens (human) BT549 cells after 48 hr by SRB assay; conditions: BT-549, 48 h
MCF7 [8] = test: Cytotoxicity against Homo sapiens (human) MCF7 cells after 48 hr by SRB assay; conditions: MCF7, 48 h
MDA-MB-231 = test: Cytotoxicity against Homo sapiens (human) MDA-MB-231 cells after 48 hr by SRB assay; conditions: MDA-MB-231, 48 h
MCF7 [9] = test: Cytotoxicity against Homo sapiens (human) MCF7 cells assessed as cellular growth after 48 hr by Alamar blue assay; design: concentration or dose not given beside the values
SW-620 = test: Cytotoxicity against Homo sapiens (human) SW620 cells after 48 hr by SRB assay; conditions: SW-620, 48 h
NCI-H522 = test: Cytotoxicity against Homo sapiens (human) NCI-H522 cells after 48 hr by SRB assay; conditions: NCI-H522, 48 h
786-0 = test: Cytotoxicity against Homo sapiens (human) 786-0 cells after 48 hr by SRB assay; conditions: 786-0, 48 h
UO-31 = test: Cytotoxicity against Homo sapiens (human) UO31 cells after 48 hr by SRB assay; conditions: UO-31, 48 h
RXF 393 = test: Cytotoxicity against Homo sapiens (human) RXF393 cells after 48 hr by SRB assay; conditions: RXF 393, 48 h
IGROV-1 = test: Cytotoxicity against Homo sapiens (human) IGROV1 cells after 48 hr by SRB assay; conditions: IGROV-1, 48 h
[10] = Cytotoxicity against Homo sapiens (human) breast cancer cells after 48 hr by SRB assay; conditions: Cancer cell lines
OVCAR-3 = test: Cytotoxicity against Homo sapiens (human) OVCAR3 cells after 48 hr by SRB assay; conditions: OVCAR-3, 48 h
MDA-MB-435 = test: Cytotoxicity against Homo sapiens (human) MDA-MB-435 cells after 48 hr by SRB assay; conditions: MDA-MB-435, 48 h
SK-MEL-2 = test: Cytotoxicity against Homo sapiens (human) SK-MEL-2 cells after 48 hr by SRB assay; conditions: SK-MEL-2, 48 h
RPMI-8226 = test: Cytotoxicity against Homo sapiens (human) RPMI8226 cells after 48 hr by SRB assay; conditions: RPMI-8226, 48 h
UACC-62 = test: Cytotoxicity against Homo sapiens (human) UACC62 cells after 48 hr by SRB assay; conditions: UACC-62, 48 h
DU-145 = test: Cytotoxicity against Homo sapiens (human) DU145 cells after 48 hr by SRB assay; conditions: DU-145, 48 h
EKVX = test: Cytotoxicity against Homo sapiens (human) EKVX cells after 48 hr by SRB assay
SK-MEL-28 = test: Cytotoxicity against Homo sapiens (human) SK-MEL-28 cells after 48 hr by SRB assay; conditions: SK-MEL-28, 48 h
[11] = Cytotoxicity against Homo sapiens (human) ovarian cancer cells after 48 hr by SRB assay; conditions: Cancer cell lines

**Q.** For `O=C(Nc1ccccc1)NS(=O)(=O)c1ccc(-n2nc3c(c2-c2cccs2)Cc2ccccc2-3)cc1`, which GI50 (NCI-H23) is on record?
**A.** The GI50 was 12.2 µM.

**Q.** And the GI50 (SK-OV-3)?
**A.** Its GI50 is 60.8 µM.

**Q.** What about the GI50 [1] of the same molecule?
**A.** The GI50 was 19.5 µM.

**Q.** What about the TGI [1] of the same molecule?
**A.** The TGI was 98.1 µM.

**Q.** What about the GI50 (COLO 205) of the same molecule?
**A.** The GI50 was 44 µM.

**Q.** What about the Activity (SF-268) of the same molecule?
**A.** Its Activity is “<=32%”.

**Q.** What about the GI50 (T47D) of the same molecule?
**A.** The GI50 was 37.9 µM.

**Q.** And the GI50 (ACHN)?
**A.** The GI50 was 17.6 µM.

**Q.** What about the GI50 [2] of the same molecule?
**A.** Its GI50 is 18.2 µM.

**Q.** What about the TGI [2] of the same molecule?
**A.** The TGI was 74.4 µM.

**Q.** What about the GI50 [3] of the same molecule?
**A.** Its GI50 is 12.1 µM.

**Q.** And the TGI [3]?
**A.** Its TGI is 85.6 µM.

**Q.** What about the GI50 (CAKI-1) of the same molecule?
**A.** The GI50 was 11.1 µM.

**Q.** What about the GI50 (HT-29) of the same molecule?
**A.** The GI50 was 26.7 µM.

**Q.** What about the GI50 (SNB-19) of the same molecule?
**A.** The GI50 was > 100 µM.

**Q.** What about the GI50 (SF-539) of the same molecule?
**A.** The GI50 was 25 µM.

**Q.** What about the GI50 (U-251) of the same molecule?
**A.** Its GI50 is 22.9 µM.

**Q.** What about the GI50 (HCC 2998) of the same molecule?
**A.** The GI50 was 15.3 µM.

**Q.** And the GI50 [4]?
**A.** Its GI50 is 16.1 µM.

**Q.** What about the GI50 (OVCAR-4) of the same molecule?
**A.** Its GI50 is 34.9 µM.

**Q.** What about the GI50 (M14) of the same molecule?
**A.** The GI50 was 25 µM.

**Q.** And the GI50 (HCT-15)?
**A.** Its GI50 is 16.9 µM.

**Q.** And the GI50 (SK-MEL-5)?
**A.** The GI50 was 15.6 µM.

**Q.** What about the GI50 [5] of the same molecule?
**A.** Its GI50 is 44.4 µM.

**Q.** And the TGI [5]?
**A.** The TGI was 80.7 µM.

**Q.** And the GI50 (NCI-H460)?
**A.** Its GI50 is 18.9 µM.

**Q.** What about the GI50 (KM12) of the same molecule?
**A.** Its GI50 is 8.08 µM.

**Q.** And the GI50 [6]?
**A.** Its GI50 is 4.5 µM.

**Q.** What about the GI50 [7] of the same molecule?
**A.** Its GI50 is 29.5 µM.

**Q.** And the TGI [7]?
**A.** The TGI was 43 µM.

**Q.** And the GI50 (PC-3)?
**A.** The GI50 was 10.4 µM.

**Q.** And the GI50 (BT-549)?
**A.** Its GI50 is 24.1 µM.

**Q.** And the GI50 (MCF7 [8])?
**A.** Its GI50 is 13.4 µM.

**Q.** What about the GI50 (MDA-MB-231) of the same molecule?
**A.** The GI50 was 15.3 µM.

**Q.** And the Activity (MCF7 [9])?
**A.** The Activity was “<=32%”.

**Q.** What about the GI50 (SW-620) of the same molecule?
**A.** Its GI50 is 22.9 µM.

**Q.** What about the GI50 (NCI-H522) of the same molecule?
**A.** Its GI50 is 31.5 µM.

**Q.** And the GI50 (786-0)?
**A.** Its GI50 is 17.6 µM.

**Q.** And the GI50 (UO-31)?
**A.** The GI50 was 32.2 µM.

**Q.** What about the GI50 (RXF 393) of the same molecule?
**A.** Its GI50 is 85.3 µM.

**Q.** What about the GI50 (IGROV-1) of the same molecule?
**A.** Its GI50 is 21.4 µM.

**Q.** What about the GI50 [10] of the same molecule?
**A.** The GI50 was 20.8 µM.

**Q.** What about the TGI [10] of the same molecule?
**A.** Its TGI is 56.5 µM.

**Q.** What about the GI50 (OVCAR-3) of the same molecule?
**A.** Its GI50 is 21.8 µM.

**Q.** What about the GI50 (MDA-MB-435) of the same molecule?
**A.** The GI50 was 22.1 µM.

**Q.** What about the GI50 (SK-MEL-2) of the same molecule?
**A.** The GI50 was 70.1 µM.

**Q.** What about the GI50 (RPMI-8226) of the same molecule?
**A.** The GI50 was 5.49 µM.

**Q.** What about the GI50 (UACC-62) of the same molecule?
**A.** Its GI50 is 15.8 µM.

**Q.** What about the GI50 (DU-145) of the same molecule?
**A.** The GI50 was 28.6 µM.

**Q.** What about the GI50 (EKVX) of the same molecule?
**A.** Its GI50 is 26.1 µM.

**Q.** What about the GI50 (SK-MEL-28) of the same molecule?
**A.** Its GI50 is 50.2 µM.

**Q.** What about the GI50 [11] of the same molecule?
**A.** Its GI50 is 31.2 µM.

**Q.** What about the TGI [11] of the same molecule?
**A.** Its TGI is 98.3 µM.
